We go through 2 compounds from article PMC12471299, “Secondary Metabolites of the Marine Sponge-Derived Fungus Aspergillus subramanianii 1901NT-1.40.2 and Their Antimicrobial and Anticancer Activities” (Marine Drugs, 2025).

Several values for one entry are separate records, joined by “and”; a condition that tells them apart may be missing. Equal values may be shown once.

For data set [1], the system named is A549 cells. More on the design: method as in PMID 29642369. As to conditions: A549, at 100 µM; cited from earlier work.
For data set [2], the system named is HCT116 cells. More on the design: method as in PMID 29642369. As to conditions: HCT116, at 100 µM; cited from earlier work.
Data set [3] in a line: Cell viability assay (MTT). In kind it is cell-based, rat. As to conditions: rat, H9c2 cardiomyocytes, read-out: Cytotoxicity IC50; for IC50 at 24 h: H9c2, 24 h; for IC50 at 48 h: H9c2, 48 h. A digest of the protocol: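 Cells were seeded (H9c2 3 × 10^3, MDA-MB-231 and MCF-10A 5 × 10^3, HaCaT 1 × 10^4 cells/well), left 24 h, then exposed to compounds up to 100 µM for 24 h or 48 h at 37 °C, 5% CO2. Viability was read by MTT and expressed as percentage of DMSO control.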

Data set [4] deals with A375 cells. More on the design: method as in PMID 29642369. The conditions noted are these: A375, at 100 µM; cited from earlier work.
For data set [5], the system named is E. faecalis ATCC 29212. More on the design: method as in PMID 29642369. As to conditions: cited from earlier work.
Data set [6] relates to vancomycin-resistant enterococci strains. On the set-up: method as in PMID 29642369. As to conditions: cited from earlier work.
The test system of data set [7] is Staphylococcus aureus ATCC 21027. In words: Biofilm formation assay (MTT). In kind it is cell-based. As to conditions: S. aureus, 18 h. The method, boiled down:
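Cultures grown 24 h at 37 °C on Mueller Hinton agar; compound applied at concentrations of 100 µM and below. After 18 h, growth read at OD620 and biofilm via MTT at OD570; results expressed as percent of 1% DMSO/PBS control and given as MIC50.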

In data set [8] the test system is HT29 cells. More on the design: method as in PMID 29642369. As to conditions: cited from earlier work.
Data set [9] deals with MCF-7 cells. In words: Cell cycle investigation (propidium iodide, flow cytometry). In kind it is cell-based, human. As for the experimental part:
After incubation, the cells were trypsinized, harvested, washed with PBS, and fixed with ice-cold 70% ethanol in a dropwise manner prior to storage at −20 °C overnight. The cells were then washed with PBS, incubated with 200 μg/mL RNAse (PanReac, AppliChem, Darmstadt, Germany) and 20 μg/mL of propidium iodide (Sigma-Aldrich, St. Louis, MO, USA) for 30 min at 37 °C, and DNA content was analyzed using a NovoCyte flow cytometer (Agilent, Austin, TX, USA). The proportion of cells in each cell cycle phase was expressed as a percentage.
A general note: Flow cytometry measures light scatter and fluorescence of single cells or particles in a stream.

Data set [10] deals with MCF-7 spheroids. Description: Three-dimensional culture of MCF-7 cells, spheroid area. Type of data set: cell-based, human. The procedure:
The anticancer effect of petromurin C (8) was investigated using a 3D culture of MCF-7 cells (Figure 12). MCF-7 spheroids were formed in agarose microwells using MSLA-printed stamps. Compound 8 (10 µM and 20 µM) was added 24 h after the cells were seeded.
MCF-7 cell spheroids were formed in agarose microwells as described previously. Briefly, agarose (2.8%) heated to 60 °C was added to each well of a 96-well plate, and MSLA-printed stamps with microcylinders were inserted and then removed after agarose solidification. Each well contained 34 microwells with a diameter of 300 μm. MCF-7 cells at a concentration of 2 × 10^4 cells/well were added to each well and gently centrifuged to precipitate the cells that had gathered in the microwells. Petromurin C (8) was added after 24 h, and observations were performed daily using an MIB-2-FL fluorescence microscope (Lomo Microsystems, St. Petersburg, Russia) The spheroid area was calculated using CellProfiler software v. 4.2.8 [51, 52]. In total, at least 20 of the same spheroids in each variant were analyzed daily and data were calculated as mean ± SEM.

The IC50 is the concentration that inhibits the measured activity by half. Consider `COC1=C(c2c[nH]c3ccccc23)C(=O)C(CC=C(C)C)=C(c2c[nH]c3ccccc23)C1=O` [Compound 6, kumbicin D], for which the “effect on cells” value is listed as “weak effects” in [1]; “weak effects” in data set [2]; “weak effects” in data set [4]; “weak effects” in [8] (HT29, at 100 µM). Also, the half-maximal inhibitory concentration (IC50) at 24 h in data set [3] stood at 72.2 ± 4.1 µM. In addition, the IC50 at 48 h in data set [3] turned out to be 65.4 ± 2.1 µM. The “antibacterial activity” value in data set [5] and in data set [6] was “not active” throughout. Besides, in data set [7], the “Biofilm formation, MIC50” value amounted to 7.98 ± 0.57 µM.

With `COc1c(OC)c(-c2c[nH]c3ccc(O)cc23)c(OC)c(OC)c1-c1c[nH]c2ccccc12` [Compound 8, petromurin C], the IC50 at 24 h in data set [3] is > 100 µM. For the same compound, the half-maximal inhibitory concentration (IC50) at 48 h in data set [3] was > 100 µM. Further, the “antibacterial activity” value in data set [5] is “did not inhibit the growth”. For the same compound, the “Cell Disturbance, G1 Phase” value in data set [9] (1 h, 5 µM) was 22.69 ± 0.42%; in data set [9] (1 h, 10 µM), 21.37 ± 2.18%; in [9] (3 h, 5 µM) it was 26.2% and 26.20 ± 1.17 %; in data set [9] (3 h, 10 µM), 33.82 ± 0.98%. For the same compound, the “Cell Disturbance, G2/M Phase” value in data set [9] (1 h, 5 µM) was 29.91 ± 1.95%; in data set [9] (1 h, 10 µM), 25.9% and 25.96 ± 0.62 %; in data set [9] (3 h, 5 µM) it was 17.2% and 17.20 ± 1.23 %; in [9] (3 h, 10 µM) it was 14.9% and 14.95 ± 1.08 %. Besides, the “Cell Disturbance, S Phase” value is 45.52 ± 1.05% in data set [9] (1 h, 5 µM); 53.1% and 53.15 ± 1.53 % in data set [9] (1 h, 10 µM); 56.6% and 56.60 ± 1.25 % in [9] (3 h, 5 µM); 51.8% and 51.79 ± 0.86 % in [9] (3 h, 10 µM). Moreover, the “decrease of spheroid area” value is 19.1% in [10] (10 µM, after 24 h); 28.9% in data set [10] (10 µM, after 72 h); 29.8% in data set [10] (20 µM, after 24 h); 32.6% in data set [10] (20 µM, after 72 h). Further, the “decrease of the area of MCF-7 3D spheroids” value in [10] (abstract, concentration and time not stated) is “approximately 30%”. Further, the IC50 in data set [8] (read-out: IC50, cell viability) is 34.8 µM.
